What was measured:
rhinovirus B14 [1] = assay: Antiviral activity against HRV-14 in cell culture; assay type: functional, organism-based; conditions: Rhinovirus B
[2] = biological target: T1, Human rhinovirus A protease (Human rhinovirus sp.) (UniProt Q4U254); assay: Binding affinity on human Rhinovirus 3C protease (rhinovirus serotype 14); Slow
T1 sequence (whole entry): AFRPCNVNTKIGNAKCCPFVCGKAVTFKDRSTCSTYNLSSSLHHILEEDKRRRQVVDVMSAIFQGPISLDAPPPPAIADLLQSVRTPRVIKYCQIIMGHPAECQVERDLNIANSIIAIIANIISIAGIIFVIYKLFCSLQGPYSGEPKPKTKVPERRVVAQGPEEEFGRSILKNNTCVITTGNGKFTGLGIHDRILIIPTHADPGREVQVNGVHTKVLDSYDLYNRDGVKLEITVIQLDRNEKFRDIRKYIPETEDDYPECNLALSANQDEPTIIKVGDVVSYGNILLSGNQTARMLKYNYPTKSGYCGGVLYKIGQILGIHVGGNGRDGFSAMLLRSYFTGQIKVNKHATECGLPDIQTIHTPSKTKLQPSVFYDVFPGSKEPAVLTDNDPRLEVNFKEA

rhinovirus B14 [3] = assay: Cytotoxic activity against HRV-14 in cell culture; assay type: functional, rhinovirus 14; conditions: Rhinovirus B
HeLa = assay: Compound was tested for antiviral activity against HRV-2 in cell culture; assay type: functional, cell-based; conditions: Homo sapiens
[4] = biological target: T1, Human rhinovirus A protease (Human rhinovirus sp.); assay: (§1) Binding affinity on human Rhinovirus 3C protease (rhinovirus serotype 2)
[5] = biological target: T1, Human rhinovirus A protease (Human rhinovirus sp.); assay: Binding affinity on human Rhinovirus 3C protease (rhinovirus serotype 14)
[6] = biological target: T1, Human rhinovirus A protease (Human rhinovirus sp.); assay: Binding affinity on human Rhinovirus 3C protease (rhinovirus serotype 16)
[7] = biological target: T1, Human rhinovirus A protease (Human rhinovirus sp.); assay: as §1; assay type: functional

For CCOC(=O)/C=C/[C@H](CCC(N)=O)NC(=O)CNC(=O)[C@H](CC(C)C)NC(=O)OCc1ccccc1, the EC50 (rhinovirus B14 [1]) was 141 µM, the “K obs / 1” value [2] was “Slow” and the CC50 (rhinovirus B14 [3]) was > 320 µM.
With CCOC(=O)/C=C/[C@H](CCC(N)=O)NC(=O)[C@H](Cc1ccc(OC)cc1)NC(=O)[C@H](CC(C)C)NC(=O)OCc1ccccc1 the EC50 (HeLa) was 14 µM, the EC50 (rhinovirus B14 [1]) was 1.7 µM and the CC50 (rhinovirus B14 [3]) was > 320 µM. For the same molecule, the K obs / 1 [4] was 1100 M⁻¹ s⁻¹, the K obs / 1 [5] was 29000 M⁻¹ s⁻¹ and the K obs / 1 [6] was 3400 M⁻¹ s⁻¹.
With CCOC(=O)/C=C/[C@H](CCC(N)=O)NC(=O)[C@H](Cc1ccccc1)NC(=O)[C@H](CC(C)C)NC(=O)SCC the EC50 (HeLa) was 1 µM, the EC50 (rhinovirus B14 [1]) was 0.46 µM and the CC50 (rhinovirus B14 [3]) was > 320 µM. The K obs / 1 [4] was 8900 M⁻¹ s⁻¹, the K obs / 1 [5] was 91300 M⁻¹ s⁻¹ and the K obs / 1 [6] was 20000 M⁻¹ s⁻¹.
In the case of CCOC(=O)/C=C/[C@H](CCC(N)=O)NC(=O)[C@H](Cc1ccc(F)cc1)NC(=O)[C@H](CC(C)C)NC(=O)OCc1ccccc1, the EC50 (HeLa) is reported as 5.6 µM, the EC50 (rhinovirus B14 [1]) is reported as 1.8 µM and the CC50 (rhinovirus B14 [3]) is reported as > 320 µM. The K obs / 1 [4] was 2400 M⁻¹ s⁻¹, the K obs / 1 [5] was 46000 M⁻¹ s⁻¹ and the K obs / 1 [6] was 9200 M⁻¹ s⁻¹.
Molecule CCOC(=O)/C=C/[C@H](CCC(N)=O)NC(=O)[C@H](Cc1ccccc1)NC(=O)[C@H](CC(C)C)NC(=O)SCc1ccccc1 has an EC50 (HeLa) of 1.9 µM, an EC50 (rhinovirus B14 [1]) of 0.27 µM and a CC50 (rhinovirus B14 [3]) of 320 µM. For the same molecule, the K obs / 1 [4] was 28400 M⁻¹ s⁻¹, the K obs / 1 [5] was 280000 M⁻¹ s⁻¹ and the K obs / 1 [6] was 75000 M⁻¹ s⁻¹.
In the case of CCOC(=O)/C=C/[C@H](CCC(N)=O)NC(=O)[C@H](Cc1ccc(CCO)cc1)NC(=O)[C@H](CC(C)C)NC(=O)OCc1ccccc1, the EC50 (rhinovirus B14 [1]) is reported as 3.5 µM, the CC50 (rhinovirus B14 [3]) is reported as > 320 µM and the K obs / 1 [4] is reported as 700 M⁻¹ s⁻¹. For the same molecule, the K obs / 1 [5] was 43100 M⁻¹ s⁻¹ and the K obs / 1 [6] was 1300 M⁻¹ s⁻¹.
With CCC[C@H](NC(=O)[C@H](CC(C)C)NC(=O)OCc1ccccc1)C(=O)N[C@H](/C=C/C(=O)OCC)CCC(N)=O the EC50 (rhinovirus B14 [1]) was 5 µM, the CC50 (rhinovirus B14 [3]) was > 320 µM and the K obs / 1 [4] was 600 M⁻¹ s⁻¹. For the same molecule, the K obs / 1 [5] was 2300 M⁻¹ s⁻¹ and the K obs / 1 [6] was 1200 M⁻¹ s⁻¹.
With CCOC(=O)/C=C/[C@H](CCC(N)=O)NC(=O)[C@H](CC1CCCCC1)NC(=O)[C@H](CC(C)C)NC(=O)OCc1ccccc1 the EC50 (rhinovirus B14 [1]) was 1.9 µM, the K obs / 1 [7] was 700 M⁻¹ s⁻¹ and the CC50 (rhinovirus B14 [3]) was > 320 µM. It also gave a K obs / 1 [5] of 16300 M⁻¹ s⁻¹ and a K obs / 1 [6] of 3500 M⁻¹ s⁻¹.

From ChEMBL document CHEMBL1131037, “Structure-based design, synthesis, and biological evaluation of irreversible human rhinovirus 3C protease inhibitors. 2. Peptide structure-activity studies” (J Med Chem, 1998)
